Assay results published in patent US9782367B2, “Process for obtaining a modafinil-based pharmaceutical composition, resulting pharmaceutical composition and use thereof” (DEBREGEAS ET ASSOCIES PHARMA, priority 2012, dated 2017).

What was measured:
[1] = cited from earlier work
[2] = estimated; absolute bioavailability could not be determined; cited from earlier work
[3] = solubility in supercritical fluid (CO2 or tetrafluoroethane); format: physicochemical; conditions: supercritical CO2, FIG. 1
Description: From among these supercritical fluids, mention may be made of CO2: the technology of supercritical CO2 is based on the solvent power of CO2 which may be modulated at will depending on the pressure and temperature conditions applied to it.
A method for extraction with supercritical CO2 operates in a closed circuit. It includes pressurizing units (pumps) and a temperature-setting unit (exchangers) in order to bring CO2 above its critical point.
The product to be treated is placed in an extractor crossed by the supercritical CO2 flow. Molecules which are soluble in supercritical CO2, therefore extractable, are not very polar compounds with a low molecular mass.
The table below repeats the result when using S modafinil, and mannitol instead of anhydrous lactose; further the loading level was increased to about 30%.

[4] = cited from earlier work; remark: listed apart in the source

Row | SMILES | elimination half life ([1]; in humans) | bioavailability [2] | solubility in CO2 [3] | solubility in methanol and acetone ([4]; methanol and acetone) | solubility in water ([4]; water) | AUC compared with the racemic form ([1]; after administration) | variability in plasma levels compared with the racemic form ([1]; after administration)
1 | NC(=O)C[S+]([O-])C(c1ccccc1)c1ccccc1 (racemic) [Modafinil] | about 14 hours | about 40% | acceptable solubility | partly soluble | practically insoluble | – | –
2 | NC(=O)C[S@@+]([O-])C(c1ccccc1)c1ccccc1 (single isomer, unassigned) [levo-rotatory enantiomer (R)] | – | – | – | – | – | larger AUC than the racemic form | less variability
